Data published in patent publication US20080214527A1, “Hiv Integrase Inhibitors” (priority 2005, published 2008).

Legend:
HIV integrase = HIV integrase (Human immunodeficiency virus type 1 group M subtype B, UniProt P04585); experiment: Integrase inhibition assay (substrate DNA/target DNA microtiter plate, OD 405 nm); assay type: biochemical
Description: The inhibitory activities of the present compounds against integrase were determined by the assay described below.
A substrate DNA solution (2 pmol/μl) and a target DNA solution (5 pmol/μl) were prepared by the same method as that described in Experimental Example 1 of WO 2004/024693. The DNA solutions were heated and then slowly cooled so that they were annealed with each complement. Each sequence of the substrate DNA and the target DNA is the same as described in the Experimental Example.
Streptavidin, obtained from Vector Laboratories, was dissolved in 0.1 M carbonate buffer (composition: 90 mM Na2CO3, 10 mM NaHCO3) at a concentration of 40 μg/ml. After coating each well of microtiter plates (obtained from NUNC) with 50 μl of the above solution at 4° C. over night, each well was washed twice with PBS (composition: […], 0.27 mM KCl, 0.43 mM Na2HPO4, 0.14 mM KH2PO4) and blocked with 300 μl of 1% skim milk in PBS for 30 min. Additionally, each well was washed twice with PBS and added with 50 μl of the substrate DNA solution (2 pmol/μl). The microtiter plates were kept at room temperature for 30 min. Then, each well was washed twice with PBS and once with H2O.
Subsequently, to the each well prepared above were added 51 μl of the reaction buffer prepared from 12 μl of the buffer (composition: 150 mM MOPS (pH 7.2), 75 mM MnCl2, 50 mM 2-mercaptoethanol, 25% glycerol, 500 μg/ml bovine serum albumin-fraction V) and 39 μl of the distilled water. Additionally, 9 μl of an integrase solution (30 pmol) was added thereto and the mixture was mixed well. To the well of negative control (NC) was added 9 μl of the integrase dilution buffer (composition: 20 mM MOPS (pH7.2), 400 mM potassium glutamate, 1 mM EDTA, 0.1% NP-40, 20% glycerol, 1 mM DTT, 4 M urea).
The microtiter plates were incubated at 30° C. for 1 hour. The reaction solution was removed and each well was washed three times with 250 μl of the wash buffer (composition: 150 mM MOPS (pH 7.2), 50 mM 2-mercaptoethanol, 25% glycerol, 500 μg/ml bovine serum albumin-fraction V).
Subsequently, to each well prepared above were added 53 μl of the reaction buffer prepared from 12 μl of the buffer (composition: 150 mM MOPS (pH 7.2), 75 mM MgCl2, 50 mM 2-mercaptoethanol, 25% glycerol, 500 μg/ml bovine serum albumin-fraction V) and 41 μl of the distilled water. Additionally, 6 μl of either a test compound in DMSO or DMSO for positive control (PC) was mixed well. After the microtiter plates were incubated at 30° C. for 30 minutes, 1 μl of target DNA (5 pmol/μl) was added to each well, and the reaction mixture was mixed well.
The microtiter plates were incubated at 30° C. for 10 minutes. The reaction solution was removed and each well was washed twice with PBS. Subsequently, each well of the microtiter plates was filled with 100 μl of anti-digoxigenin antibody labeled with alkaline phosphatase (Sheep Fab fragment: obtained from Boehringer) and incubated at 30° C. for 1 hour. Then, each well was washed twice with 0.05% Tween20 in PBS and once with PBS. Next, 150 μl of the Alkaline phosphatase reaction buffer (composition: 10 mM p-Nitrophenylphosphate (obtained from Vector Laboratories), 5 mM MgCl2, 100 mM NaCl, 100 mM Tris-HCl (pH 9.5)) was added to each well. The microtiter plates were incubated at 30° C. for 2 hours and the reaction was terminated by the addition of 50 μl of 1 N NaOH solution. The optical density (OD) at 405 nm of each well was measured and the percent inhibition was determined by the following expression.
The percent inhibition (%)=100[1−{(C abs.−NC abs.)/(PC abs.−NC abs.)}]
When the percent inhibition (%) is X % at a concentration of ×μg/ml and the percent inhibition (%) is Y % at a concentration of y μg/ml, one of which is more than 50% and the other is less than 50%, IC50 can be determined by the following expression.
IC50(μg/ml)=x−{(X−50)(x−y)/(X−Y)}

[1] = system: HIV-1 (IIIB strain) in MT-4 cells; experiment: MT4 assay: inhibition of virus-induced CPE in MT-4 cells (MTT method); assay type: cell-based; conditions: Human immunodeficiency virus 1, MT4, 96 h, 4-day incubation, read-out: anti-HIV activity EC50
Description: MT-4 cells (human T-cell line established by HTLV-I-induced transformation) were cultured in RPMI1640 medium supplemented with 10% fetal calf serum and kanamycin ([…]) in 5% CO2, humidified incubator at 37° C. The stock of HIV-1 was produced as follows. Molt-4 cells persistently infected with HIV-1 (IIIB strain) were cultured for 3 days and culture supernatant was collected. After removal of cells by centrifugation, the supernatant was passed through membrane filter ([…]) and stored as cell-free culture supernatant at −80° C. The infectivity of the stock virus was measured by MTT assay.
Anti-HIV activity in vitro of test compounds was assayed by inhibition of virus-induced CPE in MT-4 cells. MT-4 cells were suspended in culture medium at 2.5×10^5 cells/ml. The cell suspension ([…]) was added to each well of a 96 well flat-bottom microtiter plate containing serial 2-fold dilution of test compounds ([…]). HIV-1 ([…]) was added to each well (4-10 TCID50/well). After 4-day incubation at 37° C., the viability of MT-4 cells was determined by the MTT method using 3-(4,5-dimethylthiazol-2-yl)-2,5-diphenyltetrazolium bromide.
The absorbance (OD) of each well was measured at two wavelengths (560 and 690 nm). All data represent the average values of three wells. The concentration (conc.) achieving 50% protection of HIV replication (EC50) were calculated.

Structure (SMILES) | melting point | IC50 (HIV integrase) | EC50 [1]
Cn1c(=O)c(C(=O)NCCO)c(O)c2ncc(Cc3ccc(F)cc3COC(N)=O)cc21 | 238 to 240 °C |  | 
CCNC(=O)OCc1cc(F)ccc1Cc1cnc2c(O)c(C(=O)NCCO)c(=O)n(C)c2c1 | 180 to 182 °C |  | 
CCNC(=O)OCc1cc(F)ccc1Cc1cnc2c(O)c(C(=O)NCCOC)c(=O)n(C)c2c1 | 157 to 159 °C |  | 
Cn1c(=O)c(C(=O)NCCO)c(O)c2ncc(Cc3ccc(F)cc3OCCN3CCOCC3)cc21 [Example 9, 7-[4-Fluoro-2-(2-morpholin-4-yl-ethoxy)-benzyl]-4-hydroxy-1-methyl-2-oxo-1,2-dihydro-[1,5]naphthyridine-3-carboxylic acid(2-hydroxy-ethyl)-amide] | 161 to 162 °C | < 100 nM | 1 to 100 nM
COCC#Cc1cc(F)ccc1Cc1cnc2c(O)c(C(=O)NCCO)c(=O)n(C)c2c1 [Example 13, 7-[4-Fluoro-2-(3-methoxy-prop-1-ynyl)-benzyl]-4-hydroxy-1-methyl-2-oxo-1,2-dihydro-[1,5]naphthyridine-3-carboxylic acid(2-hydroxy-ethyl)-amide] |  | < 100 nM | 1 to 100 nM
COCC#Cc1cc(F)ccc1Cc1cnc2c(O)c(C(=O)NCCOC)c(=O)n(C)c2c1 [Example 15, 7-[4-Fluoro-2-(3-methoxy-prop-1-ynyl)-benzyl]-4-hydroxy-1-methyl-2-oxo-1,2-dihydro-[1,5]naphthyridine-3-carboxylic acid(2-methoxy-ethyl)-amide] | 179 to 180 °C | < 100 nM | 1 to 100 nM
CC(=O)c1cc(F)ccc1Cc1cnc2c(O)c(C(=O)NCCO)c(=O)n(C)c2c1 [Example 17, 7-(2-Acetyl-4-fluoro-benzyl)-4-hydroxy-1-methyl-2-oxo-1,2-dihydro-[1,5]naphthyridine-3-carboxylic acid(2-hydroxy-ethyl)-amide] | 212 to 215 °C | < 100 nM | 1 to 100 nM
COCCNC(=O)c1c(O)c2ncc(Cc3ccc(F)cc3COC(N)=O)cc2n(C)c1=O [Example 22, Carbamic acid 5-fluoro-2-[8-hydroxy-7-(2-methoxy-ethylcarbamoyl)-5-methyl-6-oxo-5,6-dihydro-[1,5]naphthyridin-3-ylmethyl]-benzyl ester] | 180 to 183 °C | < 100 nM | 1 to 100 nM
COCc1cc(F)ccc1Cc1cnc2c(O)c(C(=O)NCCO)c(=O)n(C)c2c1 [Example 25, 7-(4-Fluoro-2-methoxymethyl-benzyl)-4-hydroxy-1-methyl-2-oxo-1,2-dihydro-[1,5]naphthyridine-3-carboxylic acid(2-hydroxy-ethyl)-amide] |  | < 100 nM | 1 to 100 nM
Cn1c(=O)c(C(=O)NCCO)c(O)c2ncc(Cc3ccc(F)cc3CN3CCCCS3(=O)=O)cc21 [Example 33, 7-[2-(1,1-Dioxo-1lambda*6*-[1,2]thiazinan-2-ylmethyl)-4-fluoro-benzyl]-4-hydroxy-1-methyl-2-oxo-1,2-dihydro-[1,5]naphthyridine-3-carboxylic acid(2-hydroxy-ethyl)-amide] |  | < 100 nM | 1 to 100 nM
CN(Cc1cc(F)ccc1Cc1cnc2c(O)c(C(=O)NCCO)c(=O)n(C)c2c1)S(C)(=O)=O [Example 72, 7-{4-Fluoro-2-[(methanesulfonyl-methyl-amino)-methyl]-benzyl}-4-hydroxy-1-methyl-2-oxo-1,2-dihydro-[1,5]naphthyridine-3-carboxylic acid(2-hydroxy-ethyl)-amide] |  | < 100 nM | 1 to 100 nM
